pIC50: −log10 of the molar value.
Legend:
[1] = system: rat hepatocytes; test: Sterol biosynthesis in rat hepatocytes (14C acetic acid labeling); format: cell-based; conditions: Hepatocyte, 14C cholesterol from 14C acetic acid, 4 hrs pre-incubation + 4 hrs labeling
Method: Protocol for Sterol Biosynthesis in Rat Hepatocytes:
(§1) Cell Culture, Compounds Treatment and Cell Labeling:
Frozen rat hepatocytes purchased from XenoTech(cat# N400572) were seeded on 6-well collagen I coated plates at a density of […]. The cells were grown in DMEM medium (Gibco, #11054-020) containing 10% FBS and 10 mM HEPES(Gibco # 15630-080) for 24 hrs. The cells were pre-incubated with compounds for 4 hrs and then labeled by incubating in medium containing 1 uCi/per ml of ^14C acetic acid for an additional 4 hrs. After labeling, the cells were washed twice with 5 mM MOPS solution containing 150 mM NaCl and 1 mM EDTA and collected in the lysis buffer containing 10% KOH and 80%(vol.) ethanol.
Cholesterol Extraction and Data Analysis:
In order to separate labeled cholesterol from labeled non-cholesterol lipids, the cells lysates were subject to saponification at 60° C. for 2 hrs. The lysates were then combined with 0.5 volume of H2O and 2 volumes of hexane, followed by 30 minutes of vigorous shaking. After the separation of two phases, the upper-phase solution was collected and combined with 5 volumes of scintillation cocktail. The amount of ^14C cholesterol was quantified by liquid scintillation counting. The IC50 values were calculated with GraphPad software (Prism 3.03).

[2] = system: L6 rat myoblast; test: Sterol biosynthesis in L6 rat myoblast (14C acetic acid labeling); format: cell-based; conditions: 14C cholesterol from 14C acetic acid, 3 hours pre-incubation + 3 hours labeling
Method: C.) Protocol for Sterol Biosynthesis in L6 Rat Myoblast:
as §1
L6 rat myoblast purchased from ATCC(CRL-1458) were grown in T-150 vented culture flasks and seeded on 12-well culture plates at a density of 60,000 cells per well. The cells were grown in DMEM, (Dulbecco's Modified Eagle Medium) (Gibco, #10567-014) containing 10% heat inactivated FBS (Fetal Bovine Serum) (Gibco # 10082-139) for 72 hours until reaching confluence. The cells were pre-incubated in media with compound and 0.2% DMSO (dimethyl sulfoxide) for 3 hours and then labeled by incubating in medium containing compound, 0.2% DMSO and 1 μCi/per mL of ^14C acetic acid for an additional 3 hours. […]
Lipid ester bonds were hydrolyzed by saponification of the lysates at 60° C. for 2 hours. […] The amount of ^14C cholesterol was quantified by scintillation counting in a Trilux 1450 plate reader (Wallac). The IC50 values were calculated from % inhibitions relative to negative controls vs. compound concentration on Microsoft excel 2000 data analysis wizard using a sigmoid inhibition curve model with formula: y=Bmax(1−(x^n/K^n+x^n))+y2 Where K is the IC50 for the inhibition curve, X is inhibitor concentration, Y is the response being inhibited and Bmax+Y2 is the limiting response as X approaches zero.

[3] = biological target: T1, HMGCoA (3-Hydroxy-3-methylglutaryl CoA) Reductase (Rattus norvegicus, UniProt P51639); test: HMGCoA reductase assay with rat liver microsomes (14C-HMGCoA); format: biochemical; conditions: 45 min at 37° C.
T1 construct: Male Charles River Sprague-Dawley rats were fed with 2.5% cholestyramine in rat chow diets for 5 days before sacrificing; from tissue; host or cells: liver microsomes of male Sprague-Dawley rats fed cholestyramine
T1 sequence (P51639 1-887): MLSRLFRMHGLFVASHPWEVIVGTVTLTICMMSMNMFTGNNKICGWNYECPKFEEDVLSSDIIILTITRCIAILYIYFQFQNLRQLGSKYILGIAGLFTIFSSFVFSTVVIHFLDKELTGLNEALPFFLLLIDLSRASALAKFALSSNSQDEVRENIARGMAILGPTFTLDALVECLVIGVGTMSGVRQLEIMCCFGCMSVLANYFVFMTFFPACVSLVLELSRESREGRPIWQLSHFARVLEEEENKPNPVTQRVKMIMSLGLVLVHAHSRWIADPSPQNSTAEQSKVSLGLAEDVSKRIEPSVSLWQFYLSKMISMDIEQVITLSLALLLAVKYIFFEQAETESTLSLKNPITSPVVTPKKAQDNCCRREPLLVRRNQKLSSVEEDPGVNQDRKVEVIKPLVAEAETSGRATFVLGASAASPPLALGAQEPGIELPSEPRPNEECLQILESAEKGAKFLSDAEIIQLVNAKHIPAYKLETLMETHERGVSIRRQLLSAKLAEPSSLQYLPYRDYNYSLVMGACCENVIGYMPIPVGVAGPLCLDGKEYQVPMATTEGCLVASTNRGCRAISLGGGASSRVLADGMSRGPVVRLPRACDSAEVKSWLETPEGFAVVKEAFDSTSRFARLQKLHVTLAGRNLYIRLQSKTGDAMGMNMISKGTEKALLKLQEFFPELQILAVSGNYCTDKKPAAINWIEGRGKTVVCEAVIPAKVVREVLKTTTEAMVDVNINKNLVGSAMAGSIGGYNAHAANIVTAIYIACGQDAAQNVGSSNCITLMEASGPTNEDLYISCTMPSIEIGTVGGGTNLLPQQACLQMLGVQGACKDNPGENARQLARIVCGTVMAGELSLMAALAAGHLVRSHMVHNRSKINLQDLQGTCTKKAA
Excerpt: (See, e.g., J. of Lipid Research 1998; 39: 75-84; Analytical Biochemistry, 1991; 196: 211-214; RR740-01077 Pharmacology 8, Nov., 1982) Accordingly, such compounds and formulations comprising such compounds are useful for treating, controlling or preventing inter alia hypercholesterolemia, hyperlipidemia, hypertriglyceridemia or atherosclerosis.
Rat Liver Microsomal Isolation Procedure:
Male Charles River Sprague-Dawley rats were fed with 2.5% cholestyramine in rat chow diets for 5 days before sacrificing. Livers were minced and homogenized in a sucrose homogenizing solution in an ice bath 10 times. Homogenates were diluted into a final volume of 200 mL, and centrifuged 15 min. with a Sorvall Centrifuge at 5° C., 10,000 rpm (12,000×G). The upper fat layer was removed and the supernatant decanted into fresh tubes. This step was repeated one more time before transferring the supernatant into ultracentrifuge tubes and centrifuged at 36,000 rpm (105,000×G) for an hour at 5° C. The resulting supernatant was discarded and the pellet was added to total of 15 mL 0.2 M KH2PO4. Pellets were homogenized gently by hand about 10 times. Samples were pooled and diluted into total of 60 mL buffer. The protein concentration of the homogenate was determined by the […] using a BCA kit from Pierce Chemical Company. 1 mL aliquots of microsomes were kept frozen in liquid nitrogen.
HMGCoA (3-Hydroxy-3-methylglutaryl CoA) Reductase Assay:
[3-^14C]-HMGCoA (57.0 mCi/mmol) was purchased from Amersham Biosciences, UK. HMGCoA, mevalonolactone, NADPH were purchased from Sigma Chemical Co. AG 1-8X resin was purchased from Bio-Rad Laboratory.
One μL of dimethyl sulfoxide (DMSO) or 1 μL of DMSO containing a test compound at a concentration sufficient to give a final assay concentration of between 0.1 nM to 1 mM was placed into each well of a Corning 96 well plate. […] Scintillation cocktail (Ultima-Flo-M) was added into each well and plates counted on a Trilux Microbeta Counter. The IC50 values were calculated with GraphPad software (Prism). […]

melting point | pIC50 [3] | Compound | pIC50 [1] | pIC50 [2]
239 to 241 °C | 7.92 | CC(C)n1c(CC[C@@H](O)C[C@@H](O)CC(=O)[O-])c(-c2ccc(F)cc2)c(-c2ccccc2)c1C(=O)Nc1ccccc1.[Na+] [Example 1, (3R,5R)-7-[3-(4-fluoro-phenyl)-1-isopropyl-4-phenyl-5-phenylcarbamoyl-1H-pyrrol-2-yl]-3,5-dihydroxy-heptanoic Acid Sodium Salt] | 9.13 | 6.80
> 250 °C | 9.21 | CC(C)n1c(CCC(O)CC(O)CC(=O)[O-])c(-c2ccc(F)cc2)c(-c2ccccc2)c1C(=O)Nc1ccc(C(=O)[O-])cn1.[Na+].[Na+] (centres unmarked) [Example 25, 6-{[5-(6-Carboxy-3,5-dihydroxy-hexyl)-4-(4-fluoro-phenyl)-1-isopropyl-3-phenyl-1H-pyrrole-2-carbonyl]-amino}-nicotinic Acid di-sodium Salt] | 9.72 | 5.64
